# According to publication PMC12592173, “Targeted degradation of EGFR 19Del by PROTACs suppresses tumor growth in non-small-cell lung cancer” (Frontiers in Pharmacology, 2025):
# Values joined by “and” are separate entries in the source; they are usually repeats but may differ in a detail not shown here. Identical values can stand only once. Where a SMILES comes first, the peptide text is derived from it. The star is where a group is joined. Cbz = O=C(OCc1ccccc1)*
# Experiments:
# EGFR^Del19 = EGFR^Del19 (Homo sapiens, UniProt P00533+Q96SW2, DEL746-750); assay: Western blot of EGFR degradation in HCC827 cells; format: cell-based; parameters: host or cells: HCC827; conditions: for Degradation activity, in words: HCC827 (EGFR^Del19) cells; for EGFR degradation (%): HCC827, 24 h, average of two independent experiments, NA = not active; for Rescue of EGFR^Del19 reduction induced by compound 12 or 14 (competition) / Effect of inhibitor pretreatment on EGFR^Del19 degradation induced by compound 14: HCC827; for Rescue of EGFR^Del19 reduction induced by compound 12 or 14 (competition): 2 h pretreatment, 10 nM degrader 4 h; for Effect of inhibitor pretreatment on EGFR^Del19 degradation induced by compound 14: 2 μM MG132 or 5 μM MLN4924 for 2 h, then 10 nM of 14 for 8 h
# Method: HCC827 and H1975 cell lines were purchased from ATCC (United States) and cultured according to the manuals. Cells were grown in monolayers in appropriate media supplemented with 10% fetal bovine serum and 1% antibiotic/antimycotic solution.
# (§1) Cells at 70%–90% confluence were lysed in RIPA buffer with complete protease inhibitor cocktail (Roche Applied Science, Penzberg, Germany). Lysates were quantified, separated on SDS-PAGE gels, and transferred onto PVDF membranes, followed by the blockade with 5% milk in TBS+ 0.1% Tween-20 buffer for 1 h at room temperature. The following primary antibodies were used: anti-EGFR (1:50000, ABclonal Technology, Wuhan, China), anti-pEGFR (Tyr1068, […], Cell Signaling Technology, MA, United States), anti-AKT (1:10000, ABclonal Technology, Wuhan, China), anti-pAKT (1:10000, ABclonal Technology, Wuhan, China), and anti-β-actin (1:10000, ABclonal Technology, Wuhan, China). Protein bands were detected using Tanon High-signal ECL Western Blotting Substrate (Tanon Science and Technology Co., Ltd., Shanghai, China). The band density of the protein of interest was quantified using ImageJ.
# EGFR^WT protein = EGFR^WT protein (Homo sapiens, UniProt P00533); assay: Immunoblots of EGFR in H1299, H460 and HeLa cells; format: cell-based; conditions: H1299, H460 and HeLa cell lines, up to 1 μM, 24 h
# Method: as §1
# EGFR^L858R/T790M protein = target: T1, EGFR^L858R/T790M protein (Homo sapiens, UniProt P00533, L858R/T790M); assay: Immunoblots of EGFR in H1975 cells; format: cell-based; conditions: H1975 cell line, up to 1 μM, 24 h
# T1 construct: nor the EGFR^L858R/T790M protein in the H1975 cell line, up to 1 μM; host or cells: H1975
# Method: as §1
# pEGFR and pAKT = assay: Western blot of downstream signaling in HCC827 cells; format: cell-based, human
# Method: as §1
# HCC827 cells = assay: Cell viability (CCK-8) in HCC827 cells; format: cell-based, human; conditions: for IC50: Homo sapiens, CCK-8
# Method: (§2) The viability of cells was determined using Cell Counting Kit-8 (CCK-8; Dojindo), and IC50 was calculated using GraphPad Prism (version 6.0). For colony formation assays, cells (1 × 10^3 cells/well) seeded in 24-well plates were treated with different concentrations of compounds and replaced with fresh media with compounds every 4 days. After 7 days, the cells were washed with PBS, fixed with methanol, and stained with 0.1% crystal violet solution.
# H1299 cells = assay: Cell viability (CCK-8) in H1299 cells; format: cell-based; conditions: up to 1 μM, 96 h
# Method: as §2, with “Cells (5 × 10^3 for 48 h or 1 × 10^3 for 96 h) were seeded in 96-well plates, allowed to attach overnight, and then incubated with various concentrations of compounds for 48 h or 96 h. The” for “The”
# HeLa cells = assay: Cell viability (CCK-8) in HeLa cells; format: cell-based; conditions: up to 1 μM, 96 h
# Method: as §2, with “Cells (5 × 10^3 for 48 h or 1 × 10^3 for 96 h) were seeded in 96-well plates, allowed to attach overnight, and then incubated with various concentrations of compounds for 48 h or 96 h. The” for “The”
# H1975 cells = assay: Cell viability (CCK-8) in H1975 cells; format: cell-based; conditions: up to 1 μM, 96 h
# Method: as §2, with “Cells (5 × 10^3 for 48 h or 1 × 10^3 for 96 h) were seeded in 96-well plates, allowed to attach overnight, and then incubated with various concentrations of compounds for 48 h or 96 h. The” for “The”
structure (smiles),measurement,setting,value
O=C1CCC(N2C(=O)c3ccc(OCCCCCOc4cc5ncnc(Nc6ccc(F)c(Cl)c6)c5cc4OCCCN4CCOCC4)cc3C2=O)C(=O)N1 (stereo not drawn) [Compound 1],"Degradation activity, in words",EGFR^Del19; 10 nM,no degradation effect
same,EGFR degradation (%),EGFR^Del19; 10 nM,−6.6 ± 4.2%
O=C1CCC(N2C(=O)c3ccc(N4CCN(CCCCCCCCCCOc5cc6ncnc(Nc7ccc(F)c(Cl)c7)c6cc5OCCCN5CCOCC5)CC4)cc3C2=O)C(=O)N1 (stereo not drawn) [Compound 7],EGFR degradation (%),EGFR^Del19; 10 nM,19.4 ± 15.1%
O=C1CCC(N2C(=O)c3ccc(N4CCN(CCN5CCN(CCCOc6cc7ncnc(Nc8ccc(F)c(Cl)c8)c7cc6OCCCN6CCOCC6)CC5)CC4)cc3C2=O)C(=O)N1 (stereo not drawn) [Compound 12],Degradation of EGFR^WT protein,EGFR^WT protein,neither compound degraded
same,Degradation of EGFR^L858R/T790M protein,EGFR^L858R/T790M protein,neither compound degraded
same,Levels of pEGFR and pAKT,pEGFR and pAKT,markedly reduced
same,IC50,"HCC827 cells; HCC827, 48 h, HCC827, 48 h incubation",~0.0307 µM
same,IC50,"HCC827 cells; HCC827, 96 h, HCC827, 96 h incubation",~0.0256 µM
same,Effect on viability,H1299 cells,did not affect the viability
same,Effect on viability,HeLa cells,did not affect the viability
same,Effect on viability,H1975 cells,did not affect the viability
same,EGFR degradation (%),EGFR^Del19; 10 nM,60.0% ± 6.9% and 60.0 ± 6.9%
same,Earliest time at which EGFR^Del19 degradation observed,"EGFR^Del19; HCC827 cells, 10 nM",2 h
same,Dmax,"EGFR^Del19; HCC827 cells, 24 h, dose-response",85.1%
same,DC50,"EGFR^Del19; HCC827 cells, 24 h treatment",0.00194 µM
COc1cc2c(Nc3ccc(F)c(Cl)c3)ncnc2cc1OCCCN1CCN(CCN2CCN(c3ccc4c(c3)C(=O)N(C3CCC(=O)N(C)C3=O)C4=O)CC2)CC1 (stereo not drawn) [Compound 15],"Degradation activity, in words",EGFR^Del19; 10 nM,completely lost its degradation ability
"O=C1CCC(N2C(=O)c3ccccc3C2=O)C(=O)N1 (stereo not drawn) [thalidomide, reference compound]",Influence on viability of HCC827 cells,HCC827 cells; up to 200 nM,no influence
same,Rescue of EGFR^Del19 reduction induced by compound 12 or 14 (competition),EGFR^Del19; 100 times the degrader dose (1 μM),slight decrease in EGFR^Del19 was still observed
same,Rescue of EGFR^Del19 reduction induced by compound 12 or 14 (competition),EGFR^Del19; 500 times the degrader dose (5 μM),completely rescue
O=C1CCC(N2C(=O)c3ccc(N4CCN(CCCN5CCN(CCOc6cc7ncnc(Nc8ccc(F)c(Cl)c8)c7cc6OCCCN6CCOCC6)CC5)CC4)cc3C2=O)C(=O)N1 (stereo not drawn) [Compound 13],EGFR degradation (%),EGFR^Del19; 10 nM,16.8 ± 10.5%
"NS(=O)(=O)OC[C@@H]1C[C@@H](n2ccc3c(N[C@H]4CCc5ccccc54)ncnc32)C[C@@H]1O [MLN4924, reference compound]",Effect of inhibitor pretreatment on EGFR^Del19 degradation induced by compound 14,EGFR^Del19,restored
"CC(C)C[C@@H](C=O)NC(=O)[C@H](CC(C)C)NC(=O)[C@H](CC(C)C)NC(=O)OCc1ccccc1 [MG132, reference compound] (Cbz-Leu-Leu-Leu-aldehyde)",Effect of inhibitor pretreatment on EGFR^Del19 degradation induced by compound 14,EGFR^Del19,restored
O=C1CCC(N2C(=O)c3ccc(N4CCN(C(=O)CCCCCCCOc5cc6ncnc(Nc7ccc(F)c(Cl)c7)c6cc5OCCCN5CCOCC5)CC4)cc3C2=O)C(=O)N1 (stereo not drawn) [Compound 6],EGFR degradation (%),EGFR^Del19; 10 nM,15.0 ± 4.0%
O=C1CCC(N2C(=O)c3ccc(N4CCN(CCN5CCN(CCOc6cc7ncnc(Nc8ccc(F)c(Cl)c8)c7cc6OCCCN6CCOCC6)CC5)CC4)cc3C2=O)C(=O)N1 (stereo not drawn) [Compound 11],EGFR degradation (%),EGFR^Del19; 10 nM,25.1 ± 11.2%
O=C1CCC(N2C(=O)c3ccc(N4CCN(CCCCN5CCN(CCCOc6cc7ncnc(Nc8ccc(F)c(Cl)c8)c7cc6OCCCN6CCOCC6)CC5)CC4)cc3C2=O)C(=O)N1 (stereo not drawn) [Compound 10],EGFR degradation (%),EGFR^Del19; 10 nM,32.4 ± 17.1%
O=C1CCC(N2C(=O)c3ccc(OCCCCCCCCOc4cc5ncnc(Nc6ccc(F)c(Cl)c6)c5cc4OCCCN4CCOCC4)cc3C2=O)C(=O)N1 (stereo not drawn) [Compound 2],"Degradation activity, in words",EGFR^Del19; 10 nM,weak degradation activities
same,EGFR degradation (%),EGFR^Del19; 10 nM,15.3 ± 5.9%
O=C1CCC(N2C(=O)c3ccc(N4CCN(CCCC(=O)N5CCN(CCCOc6cc7ncnc(Nc8ccc(F)c(Cl)c8)c7cc6OCCCN6CCOCC6)CC5)CC4)cc3C2=O)C(=O)N1 (stereo not drawn) [Compound 9],EGFR degradation (%),EGFR^Del19; 10 nM,66.3 ± 22.7%
"COc1cc2ncnc(Nc3ccc(F)c(Cl)c3)c2cc1OCCCN1CCOCC1 [gefitinib, reference compound]",Effect on viability,H1299 cells,did not affect the viability
same,Effect on viability,HeLa cells,did not affect the viability
same,Effect on viability,H1975 cells,did not affect the viability
O=C1CCC(N2C(=O)c3ccc(OCCCCCCCCCCCOc4cc5ncnc(Nc6ccc(F)c(Cl)c6)c5cc4OCCCN4CCOCC4)cc3C2=O)C(=O)N1 (stereo not drawn) [Compound 3],"Degradation activity, in words",EGFR^Del19; 10 nM,weak degradation activities
same,EGFR degradation (%),EGFR^Del19; 10 nM,7.0 ± 9.3%
